Where “and” joins values, the source holds several entries; their conditions need not be identical. Identical values can stand only once. Ends that are not written are not given here. * marks the point of attachment. 125I = [125I]*
Legend:
PG/PC/CH liposomes = test: Binding of VIP by pre-formed lipid liposomes (PG/PC/CH); details: for binding of radiolabeled VIP by liposomes, % of available peptide: liposomes 2.5-45.6 mM Pi, 0.42 nM peptide
Method: (§1) Unilaminar phospholipid liposomes were formed using phosphatidylcholine (PC) and phosphatidylglycerol (PG) purified from egg yolk (Sigma). The fatty acid composition of the phospholipids determined by Sigma was: (PC, C16:0), (35%; C18:0, 12%; C18:1, 31%; C18:2, 14%); (PG, C16:0, 30%, C18:0, 13%; C18:1, 30%; C18:2, 16%). The unilamellar liposomes were prepared by reverse-phase evaporation as disclosed in Szoka, Jr., F. and Papahadjopoulos (1978) Proc. Natl. Acad. Sci. USA 75, 4194-4198), from a mixture of PG/PC/CH(cholesterol) (molar ratio 1:4:5) or PC/CH (1:1) dissolved in chloroform.
Peptide was permitted to bind liposome surface in aqueous solution. In organic solvents as in Example I, the peptide will be expressed in as well as on the lipid membranes of liposomes.
The liposomes were the pelleted (12,000×g, 10 min; Beckman centrifuge MICROFUGE®). The supernatant was aspirated and the liposome-associatedradioactivity was measured at 70% efficiency (Beckman model 5500 gamma counter). There was minimal loss of the liposomes in the supernatant, because more than 90% of the inorganic phosphate present in the reaction mixture was recovered in the pellet.
The binding data was corrected for peptide adsorption by the reaction tubes determined in parallel incubations.
Dissociation and saturability data were analyzed by means of Kinetic and Enzfitter (Elsevier Biosoft).
The binding of the VIP to the liposome was determined as follows. Unilamellar lipid liposomes were prepared by reverse evaporation and assayed for binding of radiolabeled VIP, as described above. BSA was included in the assay diluent to saturate nonspecific polypeptide binding sites in the lipid liposomes and the polypropylene surface of the reaction tubes.
(§2) Values are means±s.d. Probe-binding was with pre-formed liposomes (2.3 mM Pi) and 100 nM CF or 0.2 nM (tyr^10 -^125 I)VIP mixed with 100 nM unlabeled peptide. Encapsulation was by making liposomes from lipid solutions (2.6 mM Pi) containing 2.5 μM CF or 1.7 nM (Tyr^10 -^125 I)VIP mixed with 2.5 μM unlabeled VIP. Free probes were removed by three washes with 50 mM HEPES, pH 7.3, containing 0.5% BSA. CF values were determined by fluorimetry after solubilization of liposomes, and VIP values, by measurement of liposome-associated radioactivity.
FIG. 5 illustrates the results of the competitive inhibition of binding of (Tyr^10-^125)VIP (0.26 nM) by the liposomes (2.4 mM Pi) by unlabeled VIP (10 nM-1 mM). Data are means±s.d expressed as % of available radiolabeled peptide. […]

[1] = Release (leakage) of VIP from liposomes stored in buffer; format: physicochemical; details: stored in buffer at 4° C. for 14 days
Method: The release of VIP from the liposomes was determined as follows.
The peptide release from liposomes containing (tyr^10 -^125 I)VIP, approximately 20,000 cpm, kept at 4° C. in 50 mM HEPES, pH 7.3, containing 0.02% […] was determined by centrifugation of aliquots of the suspension at 12,400×g for 15 minutes and measurement of radioactivity in the supernatants.

[2] = test system: hamster check pouch microcirculation; test: Untoward effects and leaky sites in check pouch microcirculation; format: in vivo; details: i.v. infusion in hamsters
Method: (§3) The animals were kept on a heated pad throughout the duration of the experiment. Arterial blood pressure was recorded continuously using a pressure transducer and a strip-chart recorder (Model 7702B, Hewlett-Packard). The microcirculation of the hamster check pouch was visualized using intravital microscopy and clearance of fluorescein isothiocyanic-dextran (M.W.=70 RD; Sigma) from postcapillary venules and determined as described in W. G. Mayhan and I. Rubinstein, J. Appl. Physiol., 75, pp. 27-32 (1993).
(§4) The number of leaky sites in check pouch microcirculation was determined every minute throughout the duration of the experiments as disclosed in W. G. Mayhan, Supra. The data is expressed as means±SEM. Students t-test for unpaired observations was used to compare responses to vasoactive intestinal peptide. A p value<0.05 was considered to be significant.

[3] = test system: male golden Syrian hamsters; test: Hypotensive effect (mean arterial blood pressure) in anesthetized hamsters; format: in vivo, hamster
Method: The hamsters were first prepared by anesthetizing intravenously 6 mg of sodium pentobarbital per 100 g of body weight. A tracheostomy was then performed to facilitate spontaneous breathing. Supplemental anesthesia was administered intravenously as necessary at 2-4 mg/100 g body weight/hour. A femoral artery was cannulated for blood pressure monitoring. A femoral vein was cannulated for drug and florescent tracer administration.
as §3
In each hamster, 1 ml aliquots of increasing concentrations of VIP dissolved in 0.15M sodium chloride or encapsulated in liposomes (1 nmol VIP/0.12 μmol phospholipids) were infused intravenously for 7 minutes.
Mean arterial blood pressure was recorded before, during, and for 60 minutes after administration of each concentration of the peptide.
as §4
The effect on blood pressure was determined by measuring the magnitude of reduction in mean arterial blood pressure (MAP) as a function of time following infusion of VIP dissolved in saline or encapsulated in liposomes.

[4] = Encapsulation of probes by making liposomes in their presence (Table 1); format: physicochemical; details: liposomes made from lipid solutions 2.6 mM Pi containing 2.5 μM probe
Method: as §2

[5] = Release of liposome-bound VIP by solvent treatments (Table 2); format: physicochemical; details: twice 1 ml for 10 min, 23° C.
Method: Lipid liposomes (4 mM Pi) were permitted to bind (Tyr^10 -^125 I)VIP (1 nM), washed extensively to remove unbound radioactivity and then treated twice with 1 ml of the indicated solutions for 10 min (23° C.). Released radioactivity was determined in the pooled supernatant obtained by centrifugation. Values are % of initial liposome-bound radioactivity (76,300 CPM), corrected for peptide release in control incubations performed in 50 mM HEPES, pH 7.3 (4.2±3.4%).

PC/CH liposomes = test: Binding of VIP by electrically neutral liposomes (PC/CH); details: VIP 100 nM
Method: as §1
The binding of VIP (100 nM) by electrically neutral and negative liposomes prepared from PC/CH and PG/PC/CH, respectively, was compared. In each case, the levels of peptide binding increased within increasing concentration of the liposomes. The values of % VIP bound±s.d./μmol Pi were, PG/PC/CH liposomes, 26.2+3.4; PC/CH liposomes, 12.6±1.5. […] The inclusion of cholesterol, an agent that can be expected to decrease bilayer fluidity at the temperatures used in this study, as reported in Demel, R. A. and DeKruyff, B. (1976) Biochim. Biophys.

PC/PG liposomes = test: Binding of VIP by liposomes without cholesterol (PC/PG); details: PC/PG liposomes (no cholesterol)
[6] = molecular target: (tyr^10 -^125 I)VIP (radioiodinated synthetic vasoactive intestinal polypeptide)
[7] = pre-formed liposomes 2.3 mM Pi, 100 nM CF or 0.2 nM tracer with 100 nM unlabeled VIP

Substance: (tyr^10 -^125 I)VIP: VIP radioiodinated at tyrosine 10, used as tracer (HSDAVFTDNY(125I)TRLLRKQMAVKKYLNSILN-NH2)
- binding of radiolabeled VIP by liposomes, % of available peptide (PG/PC/CH liposomes): up to 56.6%
- binding of radiolabeled VIP by liposomes, % of available peptide (PG/PC/CH liposomes; listed as radiolabeled VIP): up to 60%
- leakage of (tyr10-125I)VIP from the liposomes [1]: < 2 % of available radioactivity

Substance: HSDAVFTDNYTRLLRKQMAVKKYLNSILN-NH2 (not fully specified (residue 10); printed as HSDAVFTDNYTRLLRKQMAVKKYLNSILN-NH2) [VIP, synthetic 28-amino acid neuropeptide; conventional VIP solution used as comparator]
- apparent binding capacity at saturating VIP concentrations (PG/PC/CH liposomes): 1 mol VIP/12.5 mol phospholipid
- IC50 (PG/PC/CH liposomes; 0.26 nM tracer, liposomes 2.4 mM Pi, read-out: IC50, competitive inhibition of partitioning of (Tyr10-125I)VIP into liposomes): 560 µM
- % VIP bound/μmol Pi (PG/PC/CH liposomes; VIP 100 nM, PG/PC/CH liposomes): 26.2 ± 3.4% and 26.2%
- partition constant derived from the binding isotherm (PG/PC/CH liposomes; nominal value, neutral pH): 1400 M⁻¹
- Binding (PG/PC/CH liposomes; [7]): 20.5 ± 1.0 nM
- untoward effects during infusion [2]: did not display detectable untoward effects
- decrease in MAP ([3]; 1 nmole per hamster): weak and transient decrease in MAP
- time at which a significant decrease in MAP was observed ([3]; 1 nmole per hamster, i.v. infusion 7 minutes): 5 min
- MAP values for treated animals (FIG. 2 legend, apparently baseline) ([3]; 1.0 nmole, 7 minutes i.v. infusion, n=5): 93.0 mm Hg
- return of arterial blood pressure to pre-infusion baseline ([3]; 1 nmole, FIG. 2): 9 min
- reversibility of the hypotensive effect ([3]; hamster, in vivo): fully reversible
- Encapsulation [4]: 37.5 ± 5.0 nM
- % VIP released ([5]; 1 mM HCl): 3.0 ± 3.5%
- % VIP released ([5]; 1 mM NaOH): 15.9 ± 4.0%
- % VIP released ([5]; 25 mM EDTA): 8.1 ± 10.0%
- % VIP released ([5]; 1% SDS): 81.1 ± 9.6%
- % VIP released ([5]; 1 M NaCl): 2.7 ± 3.0%
- % VIP bound/μmol Pi (PC/CH liposomes): 12.6±1.5%
- % VIP bound/μmole Pi (PC/PG liposomes): 24.9%

Substance: carboxyfluorescein [CF]
- Binding (PG/PC/CH liposomes; [7]): 0.01 ± 0.001 nM
- Binding, nM (PG/PC/CH liposomes; pre-formed liposomes 2.3 mM Pi, 100 nM CF or 0.2 nM tracer with 100 nM unlabeled VIP, listed as carboxyfluorescein): very small amounts
- Encapsulation [4]: 82.5 ± 7.5 nM

Substance: trypsin from bovine pancreas (Sigma) (from UniProt P00760) (enzyme)
- peptide hydrolysis (trichloroacetic acid-soluble radioactivity of (tyr^10 -^125 I)VIP) [6]: 80 % digested

Source: patent US5770570A, “Method of delivering a vasoactive intestinal polypeptide, an encapsulated vasoactive intestinal polypeptide, and a method of making the encapsulated vasoactive intestinal polypeptide” (priority 1995, dated 1998)
